Target: T1, Renin (Rattus norvegicus) (UniProt P08424)
T1 sequence (whole entry): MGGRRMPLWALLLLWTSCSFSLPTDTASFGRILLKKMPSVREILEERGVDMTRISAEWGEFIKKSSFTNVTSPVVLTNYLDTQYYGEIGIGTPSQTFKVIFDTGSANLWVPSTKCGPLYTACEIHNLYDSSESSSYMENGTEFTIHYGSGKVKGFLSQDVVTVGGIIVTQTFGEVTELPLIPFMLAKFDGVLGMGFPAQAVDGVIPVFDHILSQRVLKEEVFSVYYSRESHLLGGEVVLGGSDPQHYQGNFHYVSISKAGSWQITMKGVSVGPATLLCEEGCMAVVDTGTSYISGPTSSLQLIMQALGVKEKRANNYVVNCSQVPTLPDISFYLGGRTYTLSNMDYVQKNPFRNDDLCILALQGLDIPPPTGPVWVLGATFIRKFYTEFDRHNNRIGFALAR
Test: Compound was evaluated for its ability to reduce plasma renin activity; Ranges is 20-40
Type: functional, cell-free
Design: scale not given: the % may be the effect or the level left

CC(C)C[C@H]1C(=O)N2CCCC2[C@]2(C)O[C@](NC(=O)C3C=C4c5cccc6[nH]c(Br)c(c56)C[C@H]4N(C)C3)(C(C)C)C(=O)N12 (stereo partly specified)
Activity: 20%
